Test system: bone defect mice
Assay: Tibia cortical and trabecular bone defect mice model
Format: in vivo, mouse
From the text: The tibia cortical and trabecular bone defect mice model was established to determine the bone healing effect of DZNep in vivo. Firstly, all mice (twelve 8-week-old C57/BL6 male mice (approximate weight 20 ± 2 g)) were anesthetized by 2% isoflurane, the right tibia was exposed, and muscles were dissociated. Then a pilot hole was first made with a burr drill point in the proximal tibia, but away from the growth plate to some extent. Then the hole was enlarged with a 1 mm […]. Afterward, the mice were average divided into two groups: (1) DZNep group (injection with 100 μg/kg DZNep); (2) Sham group (injection with 1 × PBS). Two days after operation, 1 × PBS for sham group and DZNep for treatment group were intraperitoneally injected every two days during next two week. All mice were finally euthanized after experiment, and whole tibia bones were separated. After fixed in 4% paraformaldehyde for 24 h, the 75% ethanol was then used to soak the specimens for further histological and radiographic analysis. High-resolution micro-CT (μCT-100, SCANCO Medical AG, Switzerland) was used to perform the micro-computed tomography (CT) scanning. […] For analysis bone mass of defect section, a region of defect section trabecular bone was contoured, starting from the first defect section level away from proximal end of the […] growth plate. Femoral trabecular bone was thresholded at 211 per mille. The indicators of bone microstructure (bone volume/tissue volume (BV/TV), trabecular thickness (Tb.Th), trabecula number (Tb.N), trabecula separation (Tb.Sp), and bone surface/ bone volume (BS/BV)) were measured by software (Version: 6.5-3, SCANCO Medical AG, Switzerland) through evaluating and analyzing the three-dimensional region of interest (ROI). After fixing in 4% paraformaldehyde for 48 h, the 10% EDTA was used to decalcify the fixed tibias for 21 days. Then the tissues were processed by dehydrating in different concentrations of ethanol, infiltrating with xylene, and embedding with paraffin. Hematoxylin and eosin (H&E) and TRAP staining were then performed on these prepared histological sections. As for immunofluorescent staining, slices were processed in a sequence of deparaffinization, hydration, antigen retrieval, permeabilization, blocking, primary antibody incubation (OCN, USA, Affinity; dilution 1:100), secondary antibody incubation, and nuclear staining finally. Immunohistochemical (IHC) staining was accomplished with antibodies against OCN (USA, Affinity; dilution 1:100). The specimens were observed and photographed under the high-quality microscope (Leica DM4000B). Each sample's number of osteoclasts and TRAP-positive multinucleated osteoclasts per field (Oc.S/BS) were calculated.

[1] = 100 μg/kg i.p. every two days, two weeks

In the case of `Nc1nccc2c1ncn2C1C=C(CO)C(O)C1O` (stereo not drawn) [DZNep, 3-Deazaneplanocin], the “osteocalcin (OCN) expression in vivo” value (100 μg/kg i.p.) is reported as “increased”, the “BV/TV (micro-CT)” value [1] is reported as “prominently increased” and the “trabecular thickness (Tb.th) (micro-CT)” value [1] is reported as “prominently increased”. For the same compound, the “bone mineral density (X-ray)” value (100 μg/kg i.p. every two days, two weeks, vs control) was “more bone mineral density”, the “bone repair (H&E-stained sections)” value (100 μg/kg i.p., vs control) was “more significant bone repair” and the “number of TRAP-positive multinucleated osteoclasts in vivo” value (100 μg/kg i.p., vs vehicle-treated group) was “more number of TRAP-positive multinucleated osteoclasts”.
